Literature values, collected in patent publication US9006268B2, “Prolylcarboxypeptidase inhibitors” (Merck Sharp & Dohme Corp., priority 2010, dated 2015).

What was measured:
[1] = literature studies of weight loss medications
rats = conditions: intracerebroventricular administration to rats
[2] = tested on: obese, leptin deficient mice; conditions: systemic administration to obese

Compound | weight loss of body weight for drug compared to placebo [1] | overnight food intake (rats) | overnight food intake [2]
CCN[C@@H](C)Cc1cccc(C(F)(F)F)c1 [dexfenfluramine] | 5%-10% |  | 
CCCCCCCCCCC[C@@H](C[C@@H]1OC(=O)[C@H]1CCCCCC)OC(=O)[C@H](CC(C)C)NC=O [orlistat] | 5%-10% |  | 
CC(C)(N)Cc1ccccc1 [phentermine] | 5%-10% |  | 
CC(C)CC(N(C)C)C1(c2ccc(Cl)cc2)CCC1 (stereo not drawn) [sibutramine] | 5%-10% |  | 
t-butyl carbamate-prolyl prolinal [BPP] |  | suppression of overnight food intake | suppression of overnight food intake
